# Measured values published in PubChem BioAssay (NCI).
# Where “and” joins values, the source holds several entries; their conditions need not be identical. Identical values can stand only once.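 Cultured in 96-well plates, cells were exposed to test compound for 48 hours across five concentrations. GI50 marks 50% less growth. TGI: total growth inhibition.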
# Tests used:
# Experiment in all cases: growth of human tumour cells (NCI), 48 h
# K-562 leukemia = system: K-562 leukemia
# HCT-116 colon = system: HCT-116 colon
# A498 renal = system: A498 renal
# UACC-257 melanoma = system: UACC-257 melanoma
# ACHN renal = system: ACHN renal
# SF-268 CNS = system: SF-268 CNS
# M19-MEL melanoma = system: M19-MEL melanoma
# OVCAR-8 ovarian = system: OVCAR-8 ovarian
# NCI-H226 lung = system: NCI-H226 lung
# SNB-75 CNS = system: SNB-75 CNS
# SK-MEL-2 melanoma = system: SK-MEL-2 melanoma
# XF 498 CNS = system: XF 498 CNS
# U251 CNS = system: U251 CNS
# A549 NSCLC = system: A549 NSCLC
# HOP-18 NSCLC = system: HOP-18 NSCLC
# HCT-15 colon = system: HCT-15 colon
# KM12 colon = system: KM12 colon
# SF-295 CNS = system: SF-295 CNS
# SW-620 colon = system: SW-620 colon
# EKVX NSCLC = system: EKVX NSCLC
# HOP-62 NSCLC = system: HOP-62 NSCLC
# UO-31 renal = system: UO-31 renal
# CCRF-CEM leukemia = system: CCRF-CEM leukemia
# M14 melanoma = system: M14 melanoma
# SNB-78 CNS = system: SNB-78 CNS
# OVCAR-3 ovarian = system: OVCAR-3 ovarian
# NCI-H23 lung = system: NCI-H23 lung
# LOX IMVI melanoma = system: LOX IMVI melanoma
# MALME-3M melanoma = system: MALME-3M melanoma
# COLO 205 colon = system: COLO 205 colon
# RPMI-8226 leukemia = system: RPMI-8226 leukemia
# SN12C renal = system: SN12C renal
# DMS 273 small cell lung = system: DMS 273 small cell lung
# MOLT-4 leukemia = system: MOLT-4 leukemia
# HCC-2998 colon = system: HCC-2998 colon
# HL-60(TB) leukemia = system: HL-60(TB) leukemia
# 786-0 renal = system: 786-0 renal
# HT29 colon = system: HT29 colon
# RXF 393 renal = system: RXF 393 renal
# NCI-H460 lung = system: NCI-H460 lung
# KM20L2 colon = system: KM20L2 colon
# SK-MEL-5 melanoma = system: SK-MEL-5 melanoma
# IGROV1 ovarian = system: IGROV1 ovarian
# HOP-92 NSCLC = system: HOP-92 NSCLC
# TK-10 renal = system: TK-10 renal
# UACC-62 melanoma = system: UACC-62 melanoma
# SF-539 CNS = system: SF-539 CNS
# OVCAR-4 ovarian = system: OVCAR-4 ovarian
# SK-OV-3 ovarian = system: SK-OV-3 ovarian
# NCI-H522 lung = system: NCI-H522 lung
# SK-MEL-28 melanoma = system: SK-MEL-28 melanoma
# DMS 114 small cell lung = system: DMS 114 small cell lung
# SNB-19 CNS = system: SNB-19 CNS
# BT-549 breast = system: BT-549 breast
# CAKI-1 renal = system: CAKI-1 renal
# HS 578T breast = system: HS 578T breast
# MDA-MB-231 breast = system: MDA-MB-231 breast
# OVCAR-5 ovarian = system: OVCAR-5 ovarian
# DU-145 prostate = system: DU-145 prostate
# SR leukemia = system: SR leukemia
# T-47D breast = system: T-47D breast
# MCF7 breast = system: MCF7 breast
# MDA-N = system: MDA-N
# MDA-MB-435 = system: MDA-MB-435
# PC-3 prostate = system: PC-3 prostate
# NCI/ADR-RES ovarian = system: NCI/ADR-RES ovarian
# LXFL 529 NSCLC = system: LXFL 529 NSCLC
# DLD-1 colon = system: DLD-1 colon
smiles,measurement,setting,value
CC(NC1CCC[C@H]1O)c1ccccc1 (mixture of isomers),TGI,K-562 leukemia,> 100 µM
same,TGI,HCT-116 colon,> 100 µM
same,TGI,A498 renal,> 100 µM
same,TGI,UACC-257 melanoma,> 100 µM
same,TGI,ACHN renal,> 100 µM
same,TGI,SF-268 CNS,> 100 µM
same,TGI,M19-MEL melanoma,> 100 µM
same,TGI,OVCAR-8 ovarian,> 100 µM
same,TGI,NCI-H226 lung,> 100 µM
same,TGI,SNB-75 CNS,> 100 µM
same,TGI,SK-MEL-2 melanoma,> 100 µM
same,TGI,XF 498 CNS,> 100 µM
same,TGI,U251 CNS,> 100 µM
same,TGI,A549 NSCLC,> 100 µM
same,TGI,HOP-18 NSCLC,> 100 µM
same,TGI,HCT-15 colon,> 100 µM
same,TGI,KM12 colon,> 100 µM
same,TGI,SF-295 CNS,> 100 µM
same,TGI,SW-620 colon,> 100 µM
same,TGI,EKVX NSCLC,> 100 µM
same,TGI,HOP-62 NSCLC,> 100 µM
same,TGI,UO-31 renal,> 100 µM
same,TGI,CCRF-CEM leukemia,> 100 µM
same,TGI,M14 melanoma,> 100 µM
same,TGI,SNB-78 CNS,> 100 µM
same,TGI,OVCAR-3 ovarian,> 100 µM
same,TGI,NCI-H23 lung,> 100 µM
same,TGI,LOX IMVI melanoma,> 100 µM
same,TGI,MALME-3M melanoma,> 100 µM
same,TGI,COLO 205 colon,> 100 µM
same,TGI,RPMI-8226 leukemia,> 100 µM
same,TGI,SN12C renal,> 100 µM
same,TGI,DMS 273 small cell lung,> 100 µM
same,TGI,MOLT-4 leukemia,> 100 µM
same,TGI,HCC-2998 colon,> 100 µM
same,TGI,HL-60(TB) leukemia,> 100 µM
same,TGI,786-0 renal,> 100 µM
same,TGI,HT29 colon,> 100 µM
same,TGI,RXF 393 renal,> 100 µM
same,TGI,NCI-H460 lung,> 100 µM
same,TGI,KM20L2 colon,> 100 µM
same,TGI,SK-MEL-5 melanoma,> 100 µM
same,TGI,IGROV1 ovarian,> 100 µM
same,TGI,HOP-92 NSCLC,> 100 µM
same,TGI,TK-10 renal,> 100 µM
same,TGI,UACC-62 melanoma,> 100 µM
same,TGI,SF-539 CNS,> 100 µM
same,TGI,OVCAR-4 ovarian,> 100 µM
same,TGI,SK-OV-3 ovarian,> 100 µM
same,TGI,NCI-H522 lung,> 100 µM
same,TGI,SK-MEL-28 melanoma,> 100 µM
same,TGI,DMS 114 small cell lung,> 100 µM
same,TGI,SNB-19 CNS,> 100 µM
C[C@H](CCc1nc(C#N)c(N)o1)[C@H]1CC[C@H]2[C@@H]3[C@@H](O)CC4C[C@@H](O)CC[C@]4(C)[C@H]3C[C@@H](O)[C@]12C (stereo partly specified),TGI,K-562 leukemia,86.4 µM
same,TGI,HCT-116 colon,50 µM
same,TGI,A498 renal,> 100 µM
same,TGI,BT-549 breast,25.3 µM
same,TGI,CAKI-1 renal,> 100 µM
same,TGI,UACC-257 melanoma,50.6 µM
same,TGI,ACHN renal,> 90 µM
same,TGI,SF-268 CNS,> 91.5 µM
same,TGI,HS 578T breast,62.6 µM
same,TGI,OVCAR-8 ovarian,41.7 µM
same,TGI,NCI-H226 lung,62.9 µM
same,TGI,MDA-MB-231 breast,67.1 µM
same,TGI,SNB-75 CNS,54 µM
same,TGI,SK-MEL-2 melanoma,45.1 µM
same,TGI,OVCAR-5 ovarian,58.3 µM
same,TGI,U251 CNS,49.5 µM
same,TGI,A549 NSCLC,> 100 µM
same,TGI,DU-145 prostate,> 76.3 µM
same,TGI,SR leukemia,> 61.8 µM
same,TGI,HCT-15 colon,> 93 µM
same,TGI,T-47D breast,85.6 µM
same,TGI,MCF7 breast,> 95.4 µM
same,TGI,KM12 colon,53.8 µM
same,TGI,SF-295 CNS,53.2 µM
same,TGI,SW-620 colon,55 µM
same,TGI,EKVX NSCLC,98.1 µM
same,TGI,HOP-62 NSCLC,> 54.4 µM
same,TGI,UO-31 renal,61.8 µM
same,TGI,CCRF-CEM leukemia,> 25.2 µM
same,TGI,M14 melanoma,> 75.8 µM
same,TGI,MDA-N,77.8 µM
same,TGI,OVCAR-3 ovarian,> 56.9 µM
same,TGI,MDA-MB-435,48.8 µM
same,TGI,NCI-H23 lung,58.5 µM
same,TGI,LOX IMVI melanoma,29.2 µM
same,TGI,MALME-3M melanoma,29.3 µM
same,TGI,COLO 205 colon,40.5 µM
same,TGI,RPMI-8226 leukemia,28.6 µM
same,TGI,SN12C renal,> 79.6 µM
same,TGI,MOLT-4 leukemia,> 59.7 µM
same,TGI,PC-3 prostate,49.1 µM
same,TGI,HCC-2998 colon,36.5 µM
same,TGI,HL-60(TB) leukemia,> 26.9 µM
same,TGI,786-0 renal,> 86.7 µM
same,TGI,HT29 colon,45.6 µM
same,TGI,RXF 393 renal,35.9 µM
same,TGI,NCI-H460 lung,54.9 µM
same,TGI,SK-MEL-5 melanoma,40.9 µM
same,TGI,IGROV1 ovarian,33.2 µM
same,TGI,HOP-92 NSCLC,67 µM
same,TGI,TK-10 renal,> 68.1 µM
same,TGI,UACC-62 melanoma,30.5 µM
same,TGI,SF-539 CNS,59.5 µM
same,TGI,OVCAR-4 ovarian,> 87.6 µM
same,TGI,SK-OV-3 ovarian,73.8 µM
same,TGI,NCI-H522 lung,18.4 µM
same,TGI,SK-MEL-28 melanoma,47.2 µM
same,TGI,SNB-19 CNS,57.5 µM
same,TGI,NCI/ADR-RES ovarian,> 100 µM
CO[C@H](/C(C)=C/C=C/C(C)=C/c1coc(C)n1)[C@H](C)[C@H]1C[C@@H](O)[C@@]2(C)O[C@H]2/C=C/[C@@H](C)[C@@H]2C[C@@H](CC(=O)O2)C[C@H]2O[C@@H]2C(=O)O1,GI50,BT-549 breast,0.0133 nM
same,TGI,BT-549 breast,2.81 µM
same,TGI,UACC-257 melanoma,5 µM and 50 µM and 11.4 µM
same,TGI,ACHN renal,> 64 µM
same,GI50,MDA-MB-231 breast,0.942 pM
same,TGI,OVCAR-5 ovarian,3.99 µM and 31 µM and > 31.6 µM
same,TGI,XF 498 CNS,2.25 µM and 0.576 µM
same,TGI,SR leukemia,> 100 µM
same,GI50,M14 melanoma,0.1 pM
same,TGI,MDA-N,2.15e-06 µM
same,TGI,PC-3 prostate,2.37e-06 µM
same,GI50,786-0 renal,0.106 pM
same,TGI,KM20L2 colon,0.0005 µM
same,GI50,TK-10 renal,0.042 µM
same,TGI,TK-10 renal,> 69.5 µM
Oc1cccc(C2SCc3nc4ccccc4n32)c1 (stereo unspecified),TGI,K-562 leukemia,> 100 µM
same,TGI,HCT-116 colon,> 100 µM
same,TGI,A498 renal,> 100 µM
same,TGI,CAKI-1 renal,> 100 µM
same,TGI,UACC-257 melanoma,> 100 µM
same,TGI,ACHN renal,> 100 µM
same,TGI,SF-268 CNS,> 100 µM
same,TGI,OVCAR-8 ovarian,> 100 µM
same,TGI,NCI-H226 lung,> 100 µM
same,TGI,SNB-75 CNS,> 100 µM
same,TGI,LXFL 529 NSCLC,> 100 µM
same,TGI,SK-MEL-2 melanoma,> 100 µM
same,TGI,OVCAR-5 ovarian,> 100 µM
same,TGI,U251 CNS,> 100 µM
same,TGI,A549 NSCLC,> 100 µM
same,TGI,HOP-18 NSCLC,> 100 µM
same,TGI,SR leukemia,> 100 µM
same,TGI,DLD-1 colon,> 100 µM
same,TGI,KM12 colon,> 100 µM
same,TGI,SF-295 CNS,> 100 µM
same,TGI,SW-620 colon,> 100 µM
same,TGI,EKVX NSCLC,> 100 µM
same,TGI,UO-31 renal,> 100 µM
same,TGI,CCRF-CEM leukemia,> 100 µM
same,TGI,SNB-78 CNS,> 100 µM
same,TGI,OVCAR-3 ovarian,> 100 µM
same,TGI,NCI-H23 lung,> 100 µM
same,TGI,MALME-3M melanoma,> 100 µM
same,TGI,COLO 205 colon,> 100 µM
same,TGI,RPMI-8226 leukemia,> 100 µM
same,TGI,SN12C renal,> 100 µM
same,TGI,DMS 273 small cell lung,> 100 µM
same,TGI,MOLT-4 leukemia,> 100 µM
same,TGI,HCC-2998 colon,> 100 µM
same,TGI,HL-60(TB) leukemia,> 100 µM
same,TGI,786-0 renal,> 100 µM
same,TGI,HT29 colon,> 100 µM
same,TGI,RXF 393 renal,> 100 µM
same,TGI,NCI-H460 lung,> 100 µM
same,TGI,SK-MEL-5 melanoma,38.2 µM
same,TGI,HOP-92 NSCLC,> 100 µM
same,TGI,TK-10 renal,> 100 µM
same,TGI,UACC-62 melanoma,> 100 µM
same,TGI,SF-539 CNS,> 100 µM
same,TGI,SK-OV-3 ovarian,> 100 µM
same,TGI,NCI-H522 lung,> 100 µM
same,TGI,SK-MEL-28 melanoma,> 100 µM
same,TGI,DMS 114 small cell lung,> 100 µM
same,TGI,SNB-19 CNS,> 100 µM
